Data reported in patent US6866861B1, “Method and composition for enhancing milk component concentrations” (Land O'Lakes, Inc., priority 1999, dated 2005).

Columns and labels:
[1] = test system: cows; assay: Oral feeding of sorbitol (not ruminally protected) to cows versus control group (Example 7); type: in vivo, cow
Procedure: To determine the weight percent total solids, wet basis, in a sample, the actual weight of total solids is determined by analyzing the sample in accordance with Method #925.23 (33.2.09) of Official Methods of Analysis, Association of Official Analytical Chemists (AOAC) (16th Ed., 1995). The weight percent total solids, wet basis, is then calculated by dividing the actual weight of total solids by the actual weight of the sample. The weight percent of true protein, wet basis, for a particular sample is calculated after first determining the wet basis weight percent of total Kjeldahl nitrogen and the wet basis weight percent of non-protein nitrogen in the sample. The wet basis weight percent of total Kjeldahl nitrogen in the sample is determined using the method referenced above. The wet basis weight percent of non-protein nitrogen (NPN) in the sample is determined in accordance with Method #991.21 (33.2.12) of Official Methods of Analysis, Association of Official Analytical Chemists (AOAC) (16th Ed., 1995). The weight percent of true protein, wet basis, in the sample is then determined by subtracting the wet basis weight percent of non-protein nitrogen in the sample from the wet basis weight percent of total Kjeldahl nitrogen in the sample. To determine the weight percent lactose, wet basis, in a liquid sample, the weight of the liquid sample is first determined. The actual weight of lactose in the liquid sample may then be determined using analysis kit number 176-303, that is available from Boehringer-Mannheim of Indianapolis, Ind. in accordance with the procedural instructions included with analysis kit number 176-303. The weight percent lactose, wet basis, in the liquid sample is then calculated by dividing the actual weight of lactose in the liquid sample by the actual weight of the liquid sample. To determine the weight percent fat, wet basis, in a sample, the actual weight of fat in the sample is determined in accordance with Method #974.09 (33.7.18) of Official Methods of Analysis, Association of Official Analytical Chemists (AOAC) (16th Ed., 1995). The weight percent fat, wet basis, is then calculated by dividing the actual weight of fat in the sample by the actual weight of the sample. In this example, ten cows were orally fed 100 grams per cow per day of sorbitol along with their other daily rations during a test period of four weeks, while ten different cows of a control group were orally fed the same daily rations as the ten cows, with the exception that the ten cows of this control group were not given any sorbitol. The milk of the cows in the control group and the milk of the cows given sorbitol was sampled twice per week during the four week test period. Therefore, the values presented in Table 6 below for the various milk components for the control group and for the cows fed sorbitol represent averages of eight milk samples during the test period. The probability value, P, that is presented in Table 6 for each of the different milk components is a measure of statistical probability that the differing values between the control cattle and the cattle fed sorbitol, for each respective milk component, can be explained by the difference between the control group not being fed sorbitol and the test group that was fed sorbitol. A P value of 0.10 means that 10 times out of 100 the results can be explained by factors other than the feeding or withholding of sorbitol. […]

[2] = test system: cows; assay: Cyclic oral feeding of glycerol to cows, milk component concentrations (Example 8); type: in vivo, cow; conditions: for Fat in Milk / Lactose in Milk / Total Solids in Milk / True Protein in Milk: oral
Procedure: To determine the weight percent total solids, wet basis, in a sample, the actual weight of total solids is determined by analyzing the sample in accordance with Method #925.23 (33.2.09) of Official Methods of Analysis, Association of Official Analytical Chemists (AOAC) (16th Ed., 1995). The weight percent total solids, wet basis, is then calculated by dividing the actual weight of total solids by the actual weight of the sample. The weight percent of true protein, wet basis, for a particular sample is calculated after first determining the wet basis weight percent of total Kjeldahl nitrogen and the wet basis weight percent of non-protein nitrogen in the sample. The wet basis weight percent of total Kjeldahl nitrogen in the sample is determined using the method referenced above. The wet basis weight percent of non-protein nitrogen (NPN) in the sample is determined in accordance with Method #991.21 (33.2.12) of Official Methods of Analysis, Association of Official Analytical Chemists (AOAC) (16th Ed., 1995). The weight percent of true protein, wet basis, in the sample is then determined by subtracting the wet basis weight percent of non-protein nitrogen in the sample from the wet basis weight percent of total Kjeldahl nitrogen in the sample. To determine the weight percent lactose, wet basis, in a liquid sample, the weight of the liquid sample is first determined. The actual weight of lactose in the liquid sample may then be determined using analysis kit number 176-303, that is available from Boehringer-Mannheim of Indianapolis, Ind. in accordance with the procedural instructions included with analysis kit number 176-303. The weight percent lactose, wet basis, in the liquid sample is then calculated by dividing the actual weight of lactose in the liquid sample by the actual weight of the liquid sample. To determine the weight percent fat, wet basis, in a sample, the actual weight of fat in the sample is determined in accordance with Method #974.09 (33.7.18) of Official Methods of Analysis, Association of Official Analytical Chemists (AOAC) (16th Ed., 1995). The weight percent fat, wet basis, is then calculated by dividing the actual weight of fat in the sample by the actual weight of the sample. In Example 8, glycerol was periodically fed orally to several test cows. Period 1 lasted from week 1-3, Period 2 lasted from week 4-6, and Period 3 lasted from week 7-9, with week 0 being the start of the test period in which no glycerol was provided. The results presented in Table 7 below are averages for particular components for milk produced from each of the test animals.

[3] = milk, oral 100 gr/day, four weeks, 10 cows, average of eight samples
[4] = Period 1 (Fed Glycerol), weeks 1-3
[5] = Period 3 (Fed Glycerol), weeks 7-9

| SMILES | Fat [1, 3] [Wt %] | Lactose [1, 3] [Wt. %] | Total Solids [1, 3] [Wt. %] | True Protein [1, 3] [Wt. %] | weight percent of milk components versus control group (conclusion in words) ([1]; oral feeding, not ruminally protected) | fat, lactose, or total solids content of the milk (conclusion in words) ([2]; cyclic oral feeding) | Fat in Milk [2, 4] [wt %] | Lactose in Milk [2, 4] [wt %] | Total Solids in Milk [2, 4] [wt %] | True Protein in Milk [2, 4] [wt %] | Fat in Milk [2, 5] [wt %] | Lactose in Milk [2, 5] [wt %] | Total Solids in Milk [2, 5] [wt %] | True Protein in Milk [2, 5] [wt %] |
| --- | --- | --- | --- | --- | --- | --- | --- | --- | --- | --- | --- | --- | --- | --- |
| OC[C@@H](O)[C@@H](O)[C@H](O)[C@@H](O)CO [sorbitol] | 4.02 | 4.81 | 12.11 | 2.76 | no statistically significant increase |  |  |  |  |  |  |  |  |  |
| OCC(O)CO [glycerol] |  |  |  |  |  | no increase or essentially no increase | 3.06 | 4.97 | 11.38 | 2.64 | 3.22 | 4.80 | 11.43 | 2.69 |
